The values that follow come from the supplement of paper PMC11003180.

Common to all, as to test: drug sensitivity score (DSS) from 5-dose viability curve (DSS (area-based score, 0 = no response)); higher = more sensitive (stronger viability inhibition); extreme values may be limits of the assay
For assay [1], the system named is MDCK wild-type - doxycycline. The settings on record: doxycycline: none; 72 h. The gist of the method:
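For 72 h at 37 °C, parental MDCK cells (no doxycycline, 2000 cells/well) were incubated on 384-well plates pre-spotted with 528 oncology drugs at five doses from 1 to 10,000 nM. CellTiter-Glo luminescence served as the viability readout, scaled per plate between vehicle and positive controls. The Breeze pipeline then fitted dose-response curves to yield drug sensitivity scores.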

Assay [2] concerns MDCK p60AmotL2-inducible + doxycycline (p60AmotL2 expressing). Particulars: doxycycline: 10 ng/mL; 72 h. The gist of the method:
(§1)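 Parental MDCK cells and MDCK cells with doxycycline-inducible p60AmotL2, both given doxycycline at 10 ng/mL in the medium before plating, were dispensed at 2000 cells/well onto pre-spotted 384-well plates. The plates held an oncology library of 528 drugs at five doses (1-10,000 nM) and were incubated 72 h at 37 °C. Viability was read as CellTiter-Glo luminescence and scaled per plate between vehicle and positive controls. Drug sensitivity scores came from dose-response curve fits in the Breeze pipeline.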

The subject of assay [3] is MDCK wild-type + doxycycline. The settings on record: doxycycline: 10 ng/mL; 72 h. The gist of the method: as §1

The structures appear in SMILES notation.

Take `N#CC[C@H](C1CCCC1)n1cc(-c2ncnc3[nH]ccc23)cn1` [Ruxolitinib]: the drug sensitivity score in assay [1], in assay [2] and in assay [3] was 0 throughout.

As for `O=C(/C=C\n1cnc(-c2cc(C(F)(F)F)cc(C(F)(F)F)c2)n1)NNc1cnccn1` [Selinexor], the drug sensitivity score in assay [1] amounted to 15.1; in assay [2], 16.7; in assay [3], 16.4.

Consider `COc1cc(CCc2cc(NC(=O)c3ccc(N4CC(C)NC(C)C4)cc3)n[nH]2)cc(OC)c1` (stereo not given) [AZD4547], for which the drug sensitivity score in assay [1], in assay [2] and in assay [3] was 0 throughout.

For the molecule `Cc1ccc(C(=O)Nc2cccc(C(F)(F)F)c2)cc1Nc1nc(-c2cccnc2)nc2c1cnn2C` [NVP-BHG712], the drug sensitivity score in assay [1] was determined as 4.8; in assay [2], 0; in assay [3], 0.

Turning to `C[C@]12CC[C@H](O)CC1=CC[C@@H]1[C@@H]2CC[C@]2(C)C(c3cccnc3)=CC[C@@H]12` [Abiraterone], the drug sensitivity score in assay [1], in assay [2] and in assay [3] was 0 each time.

`O=C(CCCCCCC(=O)Nc1ccccc1)NO` [Vorinostat]: the drug sensitivity score in assay [1] was 7.5; in assay [2] it was 11.8; in assay [3] it was 9.8.

In the case of `CN1CCN(C2CCC(n3cc(-c4ccc(Oc5ccccc5)cc4)c4c(N)ncnc43)CC2)CC1` (stereo not given), the drug sensitivity score turned out to be 7 in assay [1], 14 in assay [2] and 9.4 in assay [3].

Consider `Cc1c2oc3c(C)ccc(C(=O)N[C@@H]4C(=O)N[C@H](C(C)C)C(=O)N5CCC[C@H]5C(=O)N(C)CC(=O)N(C)[C@@H](C(C)C)C(=O)O[C@@H]4C)c3nc-2c(C(=O)N[C@@H]2C(=O)N[C@H](C(C)C)C(=O)N3CCC[C@H]3C(=O)N(C)CC(=O)N(C)[C@@H](C(C)C)C(=O)O[C@@H]2C)c(N)c1=O` [Dactinomycin], for which the drug sensitivity score in assay [1] was 25.2; in assay [2] it was 32.9; in assay [3], 27.6.

Consider `CC(C)[C@H]1C(=O)N[C@@H](CCCNC(=N)N)C(=O)NCC(=O)N[C@@H](CC(=O)O)C(=O)N[C@H](Cc2ccccc2)C(=O)N1C` [Cilengitide], for which the drug sensitivity score in assay [1] came to 0.2; in assay [2] it was 3.8; in assay [3] it was 0.

For `COc1cc2c(Oc3ccc(NC(=O)C4(C(=O)Nc5ccc(F)cc5)CC4)cc3F)ccnc2cc1OCCCN1CCOCC1` [Foretinib], the drug sensitivity score in assay [1] is 0; in assay [2] it was 2.8; in assay [3], 1.2.

As for `NC(=O)c1cccc(-c2cccc(OC(=O)NC3CCCCC3)c2)c1` [URB597], the drug sensitivity score in assay [1], in assay [2] and in assay [3] was 0 throughout.

Turning to `CCS(=O)(=O)N1CCN(c2ccc(Nc3ncc(C(N)=O)c(NC4CC4)n3)cc2)CC1` [Cerdulatinib], the drug sensitivity score in assay [1] worked out at 0.2; in assay [2] it was 0.2; in assay [3], 0.

As to `COc1cc(C)c(/C=C/C(C)=C/C=C/C(C)=C/C(=O)O)c(C)c1C` [Acitretin], the drug sensitivity score in assay [1] is 3.6; in assay [2], 0; in assay [3] it was 0.

For `O=C(Nc1cc(Cl)cc2c1[nH]c1cnccc12)c1cccnc1` [PS-1145], the drug sensitivity score in assay [1], in assay [2] and in assay [3] was 0 throughout.

`Cc1nc2cccc(N)c2c(=O)n1C1CCC(=O)NC1=O` (stereo not given) [CC122]: the drug sensitivity score in assay [1], in assay [2] and in assay [3] was 0 in each case.

Consider `CC(C)(C)Cn1c(N)nc2ccc(-c3[nH]c(C(C)(C)C)nc3-c3ccc(F)cc3)nc21` [Ralimetinib], for which the values for the drug sensitivity score in assay [1], in assay [2] and in assay [3] were 0, 4.4 and 3.5, respectively.

As to `Cc1c(N)nc([C@H](CC(N)=O)NC[C@H](N)C(N)=O)nc1C(=O)N[C@H](C(=O)N[C@H](C)[C@@H](O)[C@H](C)C(=O)N[C@H](C(=O)NCCc1nc(-c2nc(C(=O)NCCC[S+](C)C)cs2)cs1)[C@@H](C)O)[C@@H](OC1OC(CO)C(O)C(O)C1OC1OC(CO)C(O)C(OC(N)=O)C1O)c1cnc[nH]1` (stereo not given in full) [Bleomycin], the values for the drug sensitivity score in assay [1], in assay [2] and in assay [3] were 0, 0.6 and 0, respectively.

For `CNS(=O)(=O)Nc1nccc(Cc2c(C)c3ccc(Oc4ncccn4)cc3oc2=O)c1F`, the drug sensitivity score in assay [1] turned out to be 0; in assay [2], 2.3; in assay [3], 0.5.

With `O=C(/C=C/c1cccc(S(=O)(=O)Nc2ccccc2)c1)NO` [Belinostat], the drug sensitivity score was determined as 14 in assay [1], 19 in assay [2] and 15.8 in assay [3].

As for `Nc1nc(N)c2nc(-c3cccc(O)c3)c(-c3cccc(O)c3)nc2n1` [TG100-115], the drug sensitivity score in assay [1], in assay [2] and in assay [3] was 0 in each case.

As for `CCNc1nc(Nc2cc(F)c(C(=O)N3CCOCC3)cc2OC)ncc1C(F)(F)F` [GNE-7915], the drug sensitivity score in assay [1], in assay [2] and in assay [3] was 0 in each case.

Turning to `CC(C)NC[C@@H](C(=O)N1CCN(c2ncnc3c2[C@H](C)C[C@H]3O)CC1)c1ccc(Cl)cc1` [Ipatasertib], the drug sensitivity score in assay [1] turned out to be 0; in assay [2] it was 2.2; in assay [3] it was 0.1.

With `CC(O)c1cc(C(=O)N[C@@H](C)Cn2ccc(-c3ccc(C#N)c(Cl)c3)n2)n[nH]1` (stereo not given in full) [ODM-201], the drug sensitivity score in assay [1], in assay [2] and in assay [3] was 0 throughout.

On to `COc1cc(Nc2ncc(F)c(Nc3ccc4c(n3)N(COP(=O)(O)O)C(=O)C(C)(C)O4)n2)cc(OC)c1OC` [Fostamatinib], for which the drug sensitivity score was 0.7 in assay [1], 4.6 in assay [2] and 1.8 in assay [3].

Regarding `CC(C)C[C@H](NC(=O)[C@H](CCc1ccccc1)NC(=O)CN1CCOCC1)C(=O)N[C@@H](Cc1ccccc1)C(=O)N[C@@H](CC(C)C)C(=O)[C@@]1(C)CO1` [Carfilzomib], the drug sensitivity score is 21.2 in assay [1], 25.7 in assay [2] and 24.6 in assay [3].

Turning to `CC[C@@H]1C(=O)OC[C@@H]1Cc1cncn1C` [Pilocarpine], the drug sensitivity score in assay [1], in assay [2] and in assay [3] was 0 in each case.

Turning to `C[C@H]1Oc2cc(cnc2N)-c2c(nn(C)c2C#N)CN(C)C(=O)c2ccc(F)cc21`, the drug sensitivity score in assay [1] turned out to be 0.1; in assay [2], 2.1; in assay [3] it was 0.

As for `C[C@@H](Oc1ccc2[nH]nc(/C=C/c3cnn(CCO)c3)c2c1)c1c(Cl)cncc1Cl`, the drug sensitivity score in assay [1] amounted to 7.1; in assay [2], 9.3; in assay [3], 7.2.

`O=C(Nc1ccncc1)C(=O)c1cn(Cc2ccc(Cl)cc2)c2ccccc12` [Indibulin]: the drug sensitivity score came out at 7.2 in assay [1], 10.7 in assay [2] and 0 in assay [3].

For `CCNC(=O)CCC/C=C\C[C@@H]1[C@@H](/C=C/[C@@H](O)CCc2ccccc2)[C@H](O)C[C@@H]1O` [Bimatoprost], the drug sensitivity score in assay [1], in assay [2] and in assay [3] was 0 in each case.

Take `CNc1ncc2cc(-c3cc(NC(=O)NCCC(C)(C)C)c(F)cc3C)c(C)nc2n1`: the drug sensitivity score in assay [1] turned out to be 2.8; in assay [2] it was 9; in assay [3], 5.2.

As to `CCN1CCN(Cc2ccc(Nc3ncc(F)c(-c4cc(F)c5nc(C)n(C(C)C)c5c4)n3)nc2)CC1` [Abemaciclib], the values for the drug sensitivity score in assay [1], in assay [2] and in assay [3] were 3.3, 7.3 and 5.6, respectively.

Consider `Cc1nn(C)c(COc2ccc(N3CCN(S(=O)(=O)N(C)C)CC3)cc2)c1-c1cccc2c(CCCOc3cccc4ccccc34)c(C(=O)O)n(CCN3CCOCC3)c12`, for which the drug sensitivity score was found to be 5.1 in assay [1], 5.3 in assay [2] and 5.3 in assay [3].

With `CO[C@H]1C[C@@H]2CC[C@@H](C)[C@@](O)(O2)C(=O)C(=O)N2CCCC[C@H]2C(=O)O[C@H]([C@H](C)C[C@@H]2CC[C@@H](OCCO)[C@H](OC)C2)CC(=O)[C@H](C)/C=C(\C)[C@@H](O)[C@@H](OC)C(=O)[C@H](C)C[C@H](C)/C=C/C=C/C=C/1C` [Everolimus], the drug sensitivity score in assay [1] was 2.1; in assay [2], 8; in assay [3], 2.1.

With `N[C@@H]1CCCN(c2c(/C=C3\SC(=O)NC3=O)cccc2-c2ccccc2)C1` [AZD1208], the drug sensitivity score in assay [1] amounted to 0; in assay [2], 1; in assay [3], 0.
